The subject of the experiment is subject's respiratory system. Kind of experiment: acoustic transmission (transfer function magnitude) monitoring of a subject's broncho-dynamic response. The format is in vivo. The conditions noted are these: FIG. 11, subject with exacerbation of asthma; combined treatment with Salbutamol and Ipratropium Bromide, treatment and recovery phase. The method, then:
This involves introducing a sound signal having known characteristics into the airway of a subject in a step 101. The signal propagates through the lung and chest tissues to the chest wall and is detected in steps 102, 105 using one or more transducers attached to the subject at one or more locations on the thoracic surface. Preferably, baseline acoustic transmission is determined in a step 103. In a step 106, changes in the detected signal are monitored during and after administration of a broncho-effector (step 104). These changes are indicative the subject's airway response (i.e. changes in airway patency due do constriction, dilation or mucus production). The test is terminated in step 107. […] By positioning the reference transducer here, the transfer function calculated by processor 205 represents the acoustic transmission of subject's respiratory system including the lower airways, alveolar sacs, thoracic tissues etc., but excludes the effects of the apparatus used to introduce the sound (e.g. loudspeaker, tubing) and the upper airways. […] The introduced sound signal is transmitted through the subject's airways, lung parenchyma and chest wall tissues such as muscle, ribs, skin etc. and in a step 102, is detected at one or more locations on the thoracic surface. […]

Molecules are shown by their SMILES.

`CC(C)[N+]1(C)[C@@H]2CC[C@H]1CC(OC(=O)C(CO)c1ccccc1)C2.[Br-]` (some centres unmarked) [Ipratropium Bromide]: the airway patency result was “gradual improvement”.

Regarding `CC(C)(C)NCC(O)c1ccc(O)c(CO)c1` (centres unmarked) [Salbutamol], the airway patency result is reported as “gradual improvement”.
